In brackets after ≈: the same amount, converted by molar mass. Like-named read-outs stand apart in the source and are kept apart here.
Tests used:
Assay in all cases: Antibacterial activity, minimum inhibition concentration (method of The Chemotherapy Association, Japan)
Type in all cases: cell-based
[1] = tested on: Enterobactor cloacae NCTC-9394; settings: read-out: minimum inhibition concentration
Protocol: (§1) Antibacterial activities of the compounds according to this invention, which had been prepared in the preceding Examples, were measured according to the method prescribed by The Committee of Amendment of "The method for measurement of the minimum inhibition concentration", The Chemotherapy Association, Japan (See Chemotherapy, Vol. 22, No. 6, pp. 1126 - 1128 (1974) and Vol. 29, No. 1, pp. 76 - 79 (1981)).
(§2) The abbreviations A to P will be used in the following Tables 2 to 8.
(§3) Test results are shown in terms of the minimum inhibition concentration (µg/mℓ.) in the following Tables 2 to 8.

Escherichia coli NIHJ = settings: Escherichia coli, read-out: minimum inhibition concentration
Protocol: as §1, §2, §3

[2] = tested on: Salmonella typhimurium 3173; settings: Salmonella enterica, TYPHIMURIUM
Protocol: as §1, §2, §3

Klebsiella pneumoniae = settings: Klebsiella pneumoniae
Protocol: as §1, §2, §3

Serratia marcescens 1023 = tested on: Serratia marcescens 1023
Protocol: as §1, §2, §3

[3] = tested on: Bacillus subtilis ATCC 6633; settings: Bacillus subtilis
Protocol: as §1, §2, §3

[4] = tested on: Proteus mirabillis B-30-2 IFO-3849
Protocol: as §1, §2, §3

[5] = tested on: Staphylococcus aureus 6538-P
Protocol: as §1, §2, §3

Escherichia coli NIHJC-2 = settings: Escherichia coli
Protocol: as §1, §2, §3

[6] = tested on: Citrobactor freundii NIH-10018 -68; settings: read-out: minimum inhibition concentration
Protocol: as §1, §2, §3

[7] = tested on: Pseudomonas aeruginosa NCTC-10490; settings: Pseudomonas aeruginosa
Protocol: as §1, §2, §3

[8] = tested on: Serratia marcescens IFO-3736; settings: Serratia marcescens
Protocol: as §1, §2, §3

Proteus morgani Kono = settings: read-out: minimum inhibition concentration
Protocol: as §1, §2, §3

Proteus vulgaris OX-19 = settings: Proteus vulgaris
Source text: as §2, §3

Proteus rettgeri NIH-96 = settings: Providencia rettgeri
Source text: as §2, §3

[9] = strain N: Enterobactor cloacae NCTC-9394
[10] = strain K: Escherichia coli NIHJ
[11] = strain D: Salmonella typhimurium 3173, read-out: minimum inhibition concentration
[12] = strain C: Klebsiella pneumoniae, read-out: minimum inhibition concentration
[13] = Serratia marcescens, 1023, strain E: Serratia marcescens 1023, read-out: minimum inhibition concentration
[14] = ATCC6633, strain B: Bacillus subtilis ATCC 6633, read-out: minimum inhibition concentration
[15] = strain G: Proteus mirabillis B-30-2 IFO-3849, read-out: minimum inhibition concentration
[16] = strain A: Staphylococcus aureus 6538-P, read-out: minimum inhibition concentration
[17] = NIHJC2, strain L: Escherichia coli NIHJC-2, read-out: minimum inhibition concentration
[18] = strain O: Citrobactor freundii NIH-10018 -68
[19] = NCTC10490, strain M: Pseudomonas aeruginosa NCTC-10490, read-out: minimum inhibition concentration
[20] = IFO3736, strain F: Serratia marcescens IFO-3736, read-out: minimum inhibition concentration
[21] = OX19, strain H: Proteus vulgaris OX-19, read-out: minimum inhibition concentration
[22] = NIH96, strain I: Proteus rettgeri NIH-96, read-out: minimum inhibition concentration

| SMILES | MIC [1, 9] | MIC (Escherichia coli NIHJ; [10]) | MIC [2, 11] | MIC (Klebsiella pneumoniae; [12]) | MIC (Serratia marcescens 1023; [13]) | MIC [3, 14] | MIC [4, 15] | MIC [5, 16] | MIC (Escherichia coli NIHJC-2; [17]) | MIC [6, 18] | MIC [7, 19] | MIC [8, 20] | MIC (Proteus morgani Kono; strain J: Proteus morgani Kono) | MIC (Proteus vulgaris OX-19; [21]) | MIC (Proteus rettgeri NIH-96; [22]) | further results |
| --- | --- | --- | --- | --- | --- | --- | --- | --- | --- | --- | --- | --- | --- | --- | --- | --- |
| CSc1nnc(SCC2=C(C(=O)[O-])N3C(=O)C(NC(=O)C(=CCl)c4csc(N)n4)[C@H]3SC2)s1.[Na+] (stereo partly drawn) [Compound 21, 7-[2-chloromethylene-2-(2-aminothiazol-4-yl)acetamido]-3-(2-methylthio-1,3,4-thiadiazol-5-yl)thiomethyl-3-cephem-4-carboxylic acid sodium salt] | – | – | – | – | – | – | – | – | – | – | – | – | – | – | – | MIC [1]: 0.39 µg/mL; MIC (Escherichia coli NIHJ): < 0.00625 µg/mL; MIC ([2]; read-out: minimum inhibition concentration, strain D: Salmonella typhimurium 3173): 3.12 µg/mL; MIC (Klebsiella pneumoniae; read-out: minimum inhibition concentration, strain C: Klebsiella pneumoniae): 3.12 µg/mL; MIC (Serratia marcescens 1023; Serratia marcescens, 1023, read-out: minimum inhibition concentration, strain E: Serratia marcescens 1023): 3.12 µg/mL; MIC ([3]; ATCC6633, read-out: minimum inhibition concentration, strain B: Bacillus subtilis ATCC 6633): 3.12 µg/mL; MIC ([4]; read-out: minimum inhibition concentration, strain G: Proteus mirabillis B-30-2 IFO-3849): 1.56 µg/mL; MIC ([5]; Staphylococcus aureus, 6538P, read-out: minimum inhibition concentration, strain A: Staphylococcus aureus 6538-P): 0.2 µg/mL; MIC (Escherichia coli NIHJC-2; NIHJC2, read-out: minimum inhibition concentration): 1.56 µg/mL; MIC [6]: 3.12 µg/mL; MIC ([7]; NCTC10490, read-out: minimum inhibition concentration): 6.25 µg/mL; MIC ([8]; IFO3736, read-out: minimum inhibition concentration): 3.12 µg/mL; MIC (Proteus morgani Kono): 0.78 µg/mL; MIC (Proteus vulgaris OX-19; OX19, read-out: minimum inhibition concentration, strain H: Proteus vulgaris OX-19): 0.025 µg/mL; MIC (Proteus rettgeri NIH-96; NIH96, read-out: minimum inhibition concentration, strain I: Proteus rettgeri NIH-96): < 0.00625 µg/mL |
| Cn1nnnc1SCC1=C(C(=O)O)N2C(=O)C(NC(=O)C(=C(Cl)Cl)c3ccsc3)C2SC1 (stereo not drawn) [Compound 35, 7-[2-dichloromethylene-2-(3-thienyl)acetamido]-3-(l-methyl-lH-tetrazol-5-yl)thiomethyl-3-cephem-4-carboxylic acid] | 12.5 µg/mL (≈ 23.4 µM) | 3.12 µg/mL (≈ 5.86 µM) | 25 µg/mL (≈ 46.9 µM) | 50 µg/mL (≈ 93.7 µM) | 3.12 µg/mL (≈ 5.86 µM) | 3.12 µg/mL (≈ 5.86 µM) | 100 µg/mL (≈ 187 µM) | 0.2 µg/mL (≈ 0.375 µM) | 50 µg/mL (≈ 93.7 µM) | 100 µg/mL (≈ 187 µM) | 12.5 µg/mL (≈ 23.4 µM) | 100 µg/mL (≈ 187 µM) | > 100 µg/mL | 25 µg/mL (≈ 46.9 µM) | 0.1 µg/mL (≈ 0.187 µM) | – |
| CC(=O)OCC1=C(C(=O)O)N2C(=O)C(NC(=O)C(=C(Cl)Cl)c3ccc(Cl)s3)[C@H]2SC1 (stereo partly drawn) [Compound 31, 7-[2-dichloromethylene-2-(5-chloro-2-thienyl)acetamido]-3-acetoxymethyl-3-cephem-4-carboxylic acid] | > 100 µg/mL | 25 µg/mL (≈ 48.8 µM) | > 100 µg/mL | > 100 µg/mL | 100 µg/mL (≈ 195 µM) | 6.25 µg/mL (≈ 12.2 µM) | > 100 µg/mL | 0.2 µg/mL (≈ 0.391 µM) | > 100 µg/mL | > 100 µg/mL | 100 µg/mL (≈ 195 µM) | > 100 µg/mL | > 100 µg/mL | 100 µg/mL (≈ 195 µM) | 1.56 µg/mL (≈ 3.05 µM) | – |
| CC(=O)OCC1=C(C(=O)O)N2C(=O)C(NC(=O)C(=C(Cl)Cl)c3ccc(N)cc3)[C@H]2SC1 (stereo partly drawn) [4-(2), 7-[2-dichloromethylene-2-(4-aminophenyl)acetamido]-3-acetoxymethyl-3-cephem-4-carboxylic acid] | > 100 µg/mL | 0.39 µg/mL (≈ 0.802 µM) | 100 µg/mL (≈ 206 µM) | > 100 µg/mL | 3.12 µg/mL (≈ 6.43 µM) | 1.56 µg/mL (≈ 3.21 µM) | > 100 µg/mL | 0.39 µg/mL (≈ 0.802 µM) | > 100 µg/mL | > 100 µg/mL | 12.5 µg/mL (≈ 25.7 µM) | > 100 µg/mL | > 100 µg/mL | 6.25 µg/mL (≈ 12.9 µM) | 0.2 µg/mL (≈ 0.411 µM) | – |
| CC(=O)OCC1=C(C(=O)O)N2C(=O)C(NC(=O)C(=C(Cl)Cl)c3csc(NC(=O)OC(C)(C)C)n3)C2SC1 (stereo not drawn) [5-(1), 7-[2-dichloromethylene-2-(2-tert-butoxycarbonyl-aminothiazol-4-yl)acetamido]-3-acetoxymethyl-3-cephem-4-carboxylic acid] | 12.5 µg/mL (≈ 21.1 µM) | 0.1 µg/mL (≈ 0.169 µM) | 12.5 µg/mL (≈ 21.1 µM) | 12.5 µg/mL (≈ 21.1 µM) | 25 µg/mL (≈ 42.1 µM) | 25 µg/mL (≈ 42.1 µM) | 12.5 µg/mL (≈ 21.1 µM) | 1.56 µg/mL (≈ 2.63 µM) | 25 µg/mL (≈ 42.1 µM) | 25 µg/mL (≈ 42.1 µM) | 12.5 µg/mL (≈ 21.1 µM) | 12.5 µg/mL (≈ 21.1 µM) | 12.5 µg/mL (≈ 21.1 µM) | 0.39 µg/mL (≈ 0.657 µM) | < 0.025 µg/mL | – |

Source: EP0048954A2, “Beta-lactam compounds, process for the preparation thereof and intermediate products for the preparation thereof” (SAGAMI CHEMICAL RESEARCH CENTER, priority 1980, dated 1982)
